PMC4501872 (The Journal of steroid biochemistry and molecular biology, 2015)
Like-named read-outs stand apart in the source and are kept apart here.

Tests used:
human SULT2A1 = molecular target: T1, human SULT2A1 (Homo sapiens, UniProt Q06520); assay type: biochemical; settings: for rate of 3-sulfate formation in the absence of celecoxib: 2 μM 35S-PAPS for 6D-E2, 20 μM PAPS for the others; for rate of 17-sulfate formation in the absence of celecoxib: 2 μM 35S-PAPS for 6D-E2, 20 μM PAPS for 17β-Eqn; for SULT2A1 enzyme activity toward the substrate: control activity
T1 sequence (Q06520 1-285): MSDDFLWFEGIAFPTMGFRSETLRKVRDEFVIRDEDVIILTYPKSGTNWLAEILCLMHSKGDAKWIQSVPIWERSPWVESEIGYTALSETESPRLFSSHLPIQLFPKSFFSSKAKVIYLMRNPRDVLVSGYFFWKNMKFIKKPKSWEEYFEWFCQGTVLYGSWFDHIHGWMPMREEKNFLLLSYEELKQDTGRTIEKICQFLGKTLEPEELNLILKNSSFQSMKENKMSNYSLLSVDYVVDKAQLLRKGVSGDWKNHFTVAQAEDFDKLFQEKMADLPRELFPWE

[1] = calculated, following a therapeutic dose of 200 mg; cited from earlier work
[2] = No celecoxib, 0.16 μM E2, PAPS 20 μM
[3] = No celecoxib, 0.4 μM E2, PAPS 20 μM
[4] = Celecoxib (50 μM) added after PAPS (20 μM), 0.16 μM E2
[5] = Celecoxib (50 μM) added after PAPS (20 μM), 0.4 μM E2
[6] = Celecoxib (50 μM) added before PAPS (20 μM), 0.16 μM E2
[7] = Celecoxib (50 μM) added before PAPS (20 μM), 0.4 μM E2

C[C@]12CC[C@@H]3c4cc(O)c(O)cc4CC[C@H]3[C@@H]1CC[C@@H]2O [2-OH-E2, 2-hydroxyestradiol]
rate of 3-sulfate formation in the absence of celecoxib (human SULT2A1; 0.4 μM substrate): 2 pmol/min/mg protein

C[C@]12CC[C@@H]3c4ccc(O)c(O)c4CC[C@H]3[C@@H]1CC[C@@H]2O [4-OH-E2, 4-hydroxyestradiol]
rate of 3-sulfate formation in the absence of celecoxib (human SULT2A1; 0.4 μM substrate): 15 pmol/min/mg protein

C[C@]12CC[C@@H]3c4ccc(O)cc4C=C[C@H]3[C@@H]1CC[C@@H]2O [6D-E2, 6-dehydroestradiol]
rate of 17-sulfate formation in the absence of celecoxib (human SULT2A1; 0.4 μM substrate): 2 pmol/min/mg protein | rate of 3-sulfate formation in the absence of celecoxib (human SULT2A1; 0.4 μM substrate): 51 pmol/min/mg protein

C[C@]12CC=C3c4ccc(O)cc4CC[C@H]3[C@@H]1CC[C@@H]2O [9D-E2, 9-dehydroestradiol]
rate of 3-sulfate formation in the absence of celecoxib (human SULT2A1; 0.4 μM substrate): 14 pmol/min/mg protein

C[C@]12CC[C@@H]3c4ccc(O)cc4CC[C@H]3[C@@H]1CC[C@@H]2O [17β-E2, 17β-estradiol]
17-sulfate produced relative to 3-sulfate in the absence of celecoxib (human SULT2A1; 0.4 μM substrate, Figure 6G): around 76 times | Product formed, 3-sulfate (human SULT2A1; [2]): 150 pmol/min/mg protein | Product formed, 17-sulfate (human SULT2A1; [2]): Not detected | Product formed, Total sulfates (human SULT2A1; [2]): 150 pmol/min/mg protein | Product formed, 3-sulfate (human SULT2A1; [3]): 306 pmol/min/mg protein | Product formed, 17-sulfate (human SULT2A1; [3]): Not detected | Product formed, Total sulfates (human SULT2A1; [3]): 306 pmol/min/mg protein

C[C@]12CC[C@H]3C(=CCc4cc(O)ccc43)[C@@H]1CC[C@@H]2O [17β-Eq, 17β-dihydroequilin]
rate of 3-sulfate formation in the absence of celecoxib (human SULT2A1; 0.4 μM substrate): 46 pmol/min/mg protein

C[C@]12CCc3c(ccc4cc(O)ccc34)[C@@H]1CC[C@@H]2O [17β-Eqn, 17β-dihydroequilenin]
rate of 17-sulfate formation in the absence of celecoxib (human SULT2A1; 0.4 μM substrate): 11.4 pmol/min/mg protein | rate of 3-sulfate formation in the absence of celecoxib (human SULT2A1; 0.4 μM substrate): 56 pmol/min/mg protein

C[C@]12CC[C@H]3[C@@H](CC=C4C[C@@H](O)CC[C@@]43C)[C@@H]1CC[C@@H]2O [AD, 5-androsten-3β,17β-diol]
SULT2A1 enzyme activity toward the substrate (human SULT2A1; 0.4 μM substrate): 8–9 nmol sulfate/min/mg protein

C[C@]12CC[C@H](O)CC1=CC[C@@H]1[C@@H]2CC[C@]2(C)C(=O)CC[C@@H]12 [DHEA, dehydroepiandrosterone]
SULT2A1 enzyme activity toward the substrate (human SULT2A1; 0.4 μM substrate): 8–9 nmol sulfate/min/mg protein

C[C@]12CC[C@H]3[C@@H](CCC4=CC(=O)CC[C@@]43C)[C@@H]1CC[C@H]2O [Epi-T, epi-testosterone]
SULT2A1 enzyme activity toward the substrate (human SULT2A1; 0.4 μM substrate): 8–9 nmol sulfate/min/mg protein | rate of sulfonation of Epi-T relative to T (human SULT2A1; control activities, 0.4 μM substrate): 7 times

Cc1ccc(-c2cc(C(F)(F)F)nn2-c2ccc(S(N)(=O)=O)cc2)cc1 [celecoxib]
effect on sulfonation of E1 (human SULT2A1; 0–80 μM celecoxib, 0.4 μM E1, p > 0.05, ANOVA): not affected significantly | celecoxib concentration at which 4-OH-E2 17-sulfate and 3-sulfate curves cross (human SULT2A1; 0.4 μM 4-OH-E2, 20 μM PAPS): approximately 30 μM | enhancement of total sulfate product formation from 6D-E2 (human SULT2A1; 50 μM celecoxib, 0.4 μM 6D-E2): over 8 fold | increase of total product formation from 9D-E2 (human SULT2A1; 80 μM celecoxib, 0.4 μM 9D-E2): 9.4 times | stimulation of 17β-Eqn–17-sulfate formation compared with absence of celecoxib (human SULT2A1; 80 μM celecoxib, 0.4 μM 17β-Eqn): 34 fold | celecoxib concentrations at which 17β-E2–3-S decreased (human SULT2A1; 0.05, 0.2 and 0.4 μM 17β-E2): ≥ 50 µM | celecoxib concentration at which stimulation of 17β-E2–17-S formation peaked (human SULT2A1; 0.2 and 0.4 μM 17β-E2): 50 µM | Product formed, 3-sulfate (human SULT2A1; [4]): 85 pmol/min/mg protein | Product formed, 17-sulfate (human SULT2A1; [4]): 199 pmol/min/mg protein | Product formed, Total sulfates (human SULT2A1; [4]): 284 pmol/min/mg protein | Product formed, 3-sulfate (human SULT2A1; [5]): 177 pmol/min/mg protein | Product formed, 17-sulfate (human SULT2A1; [5]): 387 pmol/min/mg protein | Product formed, Total sulfates (human SULT2A1; [5]): 564 pmol/min/mg protein | Product formed, 3-sulfate (human SULT2A1; [6]): 155 pmol/min/mg protein | Product formed, 17-sulfate (human SULT2A1; [6]): 432 pmol/min/mg protein | Product formed, Total sulfates (human SULT2A1; [6]): 587 pmol/min/mg protein | Product formed, 3-sulfate (human SULT2A1; [7]): 363 pmol/min/mg protein | Product formed, 17-sulfate (human SULT2A1; [7]): 1076 pmol/min/mg protein | Product formed, Total sulfates (human SULT2A1; [7]): 1439 pmol/min/mg protein | effect on sulfonation of DHEA or AD at low concentrations (human SULT2A1; celecoxib 0–40 μM): did not affect | effect on 17β-Eq-3-sulfate formation (human SULT2A1; celecoxib range studied (0–80 μM), 0.4 μM 17β-Eq): No inhibition | rate of 3-sulfate formation when inhibited by celecoxib (Figure 6G substrate) (human SULT2A1; data not shown): < 1 pmol/min/mg protein | increase of total sulfonation of 6D-E2, 17β-Eqn and 9D-E2 (human SULT2A1; summary in discussion): over 8 fold | effect on formation of 3Me-E2–17β-sulfate (human SULT2A1; up to 80 μM celecoxib, 0.4 μM 3Me-E2, not saturated at 80 μM): stimulated the formation of 3Me-E2–17β-sulfate in a concentration dependent manner | maximum liver concentration of celecoxib [1]: 230 µM
